Several values for one entry are separate records, joined by “and”; a condition that tells them apart may be missing. Equal entries are not always repeated. Where two headings read alike, the source gives them in different places.
Tests used:
[1] = test system: humoral or cellular immunity; conditions: Presti et al. 1989; cited from earlier work
[2] = test system: normal human peripheral blood mononuclear cells (PBMC); assay: cells; type: cell-based; conditions: for inhibition at 5 µM / inhibition at 10 µM / inhibition at 2.5 µM: Homo sapiens, PBMC

Compound	suppressive effect on humoral or cellular immunity in vivo [1]	cpm (3H-thymidine uptake) [2]	immunosuppressive activity (in words) [2]	inhibition at 5 µM [2]	inhibition at 10 µM [2]	inhibition at 2.5 µM ([2]; read-out: % inhibition (NI))	inhibition at 2.5 µM ([2]; read-out: % inhibition)
GM1 ganglioside	no evidence of a suppressive effect						
CCCCCCCCCCCCC/C=C/[C@@H](O)[C@H](CO[C@@H]1O[C@H](CO)[C@@H](O[C@@H]2O[C@H](CO)[C@H](O[C@@H]3O[C@H](CO)[C@H](O)[C@H](O)[C@H]3NC(C)=O)[C@H](O[C@]3(C(=O)O)C[C@H](O)[C@@H](NC(C)=O)[C@H]([C@H](O)[C@H](O)CO)O3)[C@H]2O)[C@H](O)[C@H]1O)NC(=O)C(O)CCCCCCCCCCCCCCCC (stereo partly drawn) [d18:1-hC18:0 GM2]		16.7 cpm × 10^-3 and 11.4 cpm × 10^-3 and 12.9 cpm × 10^-3	less immunosuppressive than the non-hydroxylated species	30%	21%	< 0%	
CCCCCCCCCCCCC/C=C/[C@@H](O)[C@H](CO[C@@H]1O[C@H](CO)[C@@H](O[C@@H]2O[C@H](CO)[C@H](O[C@@H]3O[C@H](CO)[C@H](O)[C@H](O)[C@H]3NC(C)=O)[C@H](O[C@]3(C(=O)O)C[C@H](O)[C@@H](NC(C)=O)[C@H]([C@H](O)[C@H](O)CO)O3)[C@H]2O)[C@H](O)[C@H]1O)NC(=O)CCCCCCCCCCCCCCCCC [d18:1-C18:0 GM2]				47%	86%		31%

Source: patent publication US5366963A, “Gangliosides with immunosuppressive ceramide moieties” (The Regents of the University of California, priority 1993, dated 1994)
